# Reference: ChEMBL document CHEMBL1201862, “PubChem BioAssay data set” (2004)
#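 Five compound concentrations were applied to cells in 96-well plates for 48 hours; endpoints were derived by simple linear interpolation of the resulting dose-response curve. GI50 = concentration required for 50% inhibition of growth.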 Active and inactive are the calls of the source. Cut-off read from the data, not from the text of the source: active = GI50 up to about 1.1 µM and inactive = higher.
# How the values were obtained:
# Experiment in all cases: NCI anticancer screen, dose series, 48 h
# [1] = system: 786-0
# [2] = system: A498
# [3] = system: A549
# [4] = system: ACHN
# [5] = system: BT-549
# [6] = system: CAKI-1
# [7] = system: DU-145
# [8] = system: EKVX
# [9] = system: HCC 2998
# [10] = system: HCT-116
# [11] = system: HCT-15
# [12] = system: HL-60
# [13] = system: HOP-62
# [14] = system: HOP-92
# [15] = system: HT-29
# [16] = system: Hs-578T
# [17] = system: IGROV-1
# [18] = system: K562
# [19] = system: KM12
# [20] = system: LOX IMVI
# [21] = system: M14
# [22] = system: MCF7
# [23] = system: MDA-MB-231
# [24] = system: MDA-MB-435
# [25] = system: MDA-N
# [26] = system: MOLT-4
# [27] = system: NCI-H226
# [28] = system: NCI-H23
# [29] = system: NCI-H460
# [30] = system: NCI-H522
# [31] = system: NCI/ADR-RES
# [32] = system: OVCAR-3
# [33] = system: OVCAR-4
# [34] = system: OVCAR-5
# [35] = system: OVCAR-8
# [36] = system: PC-3
# [37] = system: RPMI-8226
# [38] = system: RXF 393
# [39] = system: SF-268
# [40] = system: SF-295
# [41] = system: SF-539
# [42] = system: SK-MEL-28
# [43] = system: SK-MEL-2
# [44] = system: SK-MEL-5
# [45] = system: SN12C
# [46] = system: SNB-19
# [47] = system: SNB-75
# [48] = system: SR
# [49] = system: SW-620
# [50] = system: T47D
# [51] = system: TK-10
# [52] = system: U-251
# [53] = system: UACC-257
# [54] = system: UO-31
# [55] = system: CCRF-CEM
# [56] = system: COLO 205
# [57] = system: Malme-3M
# [58] = system: SK-OV-3
smiles,measurement,setting,value
Cc1ccc(S(=O)(=O)C2=C(C(C)C)N=NC2(C)C)cc1,GI50,[1],> 100 µM (inactive)
same,GI50,[2],> 100 µM (inactive)
same,GI50,[3],81.3 µM (inactive)
same,GI50,[4],> 100 µM (inactive)
same,GI50,[5],48.8 µM (inactive)
same,GI50,[6],26.7 µM (inactive)
same,GI50,[7],87.1 µM (inactive)
same,GI50,[8],> 100 µM (inactive)
same,GI50,[9],73.6 µM (inactive)
same,GI50,[10],65.5 µM (inactive)
same,GI50,[11],73.6 µM
same,GI50,[12],> 100 µM (inactive)
same,GI50,[13],> 100 µM (inactive)
same,GI50,[14],14.3 µM (inactive)
same,GI50,[15],> 100 µM (inactive)
same,GI50,[16],57.5 µM (inactive)
same,GI50,[17],91.4 µM (inactive)
same,GI50,[18],28.6 µM (inactive)
same,GI50,[19],> 100 µM (inactive)
same,GI50,[20],88.9 µM (inactive)
same,GI50,[21],> 100 µM (inactive)
same,GI50,[22],62.7 µM (inactive)
same,GI50,[23],> 100 µM (inactive)
same,GI50,[24],47.6 µM (inactive)
same,GI50,[25],80 µM (inactive)
same,GI50,[26],18.7 µM (inactive)
same,GI50,[27],61.8 µM (inactive)
same,GI50,[28],48.8 µM (inactive)
same,GI50,[29],> 100 µM (inactive)
same,GI50,[30],36 µM (inactive)
same,GI50,[31],64.7 µM (inactive)
same,GI50,[32],> 100 µM (inactive)
same,GI50,[33],72.9 µM (inactive)
same,GI50,[34],> 100 µM (inactive)
same,GI50,[35],> 100 µM (inactive)
same,GI50,[36],> 100 µM (inactive)
same,GI50,[37],9.14 µM (inactive)
same,GI50,[38],66.5 µM (inactive)
same,GI50,[39],> 100 µM (inactive)
same,GI50,[40],71.8 µM (inactive)
same,GI50,[41],> 100 µM (inactive)
same,GI50,[42],> 100 µM (inactive)
same,GI50,[43],> 100 µM (inactive)
same,GI50,[44],79.8 µM (inactive)
same,GI50,[45],> 100 µM (inactive)
same,GI50,[46],> 100 µM (inactive)
same,GI50,[47],95.3 µM (inactive)
same,GI50,[48],29.3 µM (inactive)
same,GI50,[49],> 100 µM (inactive)
same,GI50,[50],60.1 µM (inactive)
same,GI50,[51],> 100 µM (inactive)
same,GI50,[52],> 100 µM (inactive)
same,GI50,[53],> 100 µM (inactive)
same,GI50,[54],> 100 µM (inactive)
CN(C)c1ccc(/C=C/c2nc3ccccc3s2)cc1,GI50,[1],> 100 µM (inactive)
same,GI50,[2],> 100 µM (inactive)
same,GI50,[3],> 100 µM (inactive)
same,GI50,[4],> 100 µM (inactive)
same,GI50,[5],80 µM (inactive)
same,GI50,[55],> 100 µM (inactive)
same,GI50,[56],> 100 µM (inactive)
same,GI50,[7],> 100 µM (inactive)
same,GI50,[8],> 100 µM (inactive)
same,GI50,[9],> 100 µM (inactive)
same,GI50,[10],> 100 µM (inactive)
same,GI50,[11],> 100 µM
same,GI50,[12],6.08 µM (inactive)
same,GI50,[13],> 100 µM (inactive)
same,GI50,[14],> 100 µM (inactive)
same,GI50,[15],> 100 µM (inactive)
same,GI50,[16],> 100 µM (inactive)
same,GI50,[17],> 100 µM (inactive)
same,GI50,[18],> 100 µM (inactive)
same,GI50,[19],> 100 µM (inactive)
same,GI50,[20],> 100 µM (inactive)
same,GI50,[21],> 100 µM (inactive)
same,GI50,[22],> 100 µM (inactive)
same,GI50,[23],> 100 µM (inactive)
same,GI50,[24],45.1 µM (inactive)
same,GI50,[25],> 100 µM (inactive)
same,GI50,[26],> 100 µM (inactive)
same,GI50,[57],> 100 µM (inactive)
same,GI50,[27],> 100 µM (inactive)
same,GI50,[28],> 100 µM (inactive)
same,GI50,[29],> 100 µM (inactive)
same,GI50,[30],> 100 µM (inactive)
same,GI50,[31],> 100 µM (inactive)
same,GI50,[33],> 100 µM (inactive)
same,GI50,[34],> 100 µM (inactive)
same,GI50,[35],> 100 µM (inactive)
same,GI50,[36],> 100 µM (inactive)
same,GI50,[37],> 100 µM (inactive)
same,GI50,[38],> 100 µM (inactive)
same,GI50,[39],> 100 µM (inactive)
same,GI50,[40],> 100 µM (inactive)
same,GI50,[41],> 100 µM (inactive)
same,GI50,[42],> 100 µM (inactive)
same,GI50,[43],> 100 µM (inactive)
same,GI50,[44],> 100 µM (inactive)
same,GI50,[58],> 100 µM (inactive)
same,GI50,[45],> 100 µM (inactive)
same,GI50,[46],> 100 µM (inactive)
same,GI50,[48],> 100 µM (inactive)
same,GI50,[49],> 100 µM (inactive)
same,GI50,[50],> 100 µM (inactive)
same,GI50,[51],> 100 µM (inactive)
same,GI50,[52],> 100 µM (inactive)
same,GI50,[53],> 100 µM (inactive)
same,GI50,[54],8.53 µM (inactive)
